Data as given in patent US20250161346A1, “METHODS FOR TREATING HEPATITIS B VIRUS INFECTION” (KAOHSIUNG MEDICAL UNIVERSITY, priority 2022, published 2025).
“Also recorded” adds a separate entry of the source.

Assays:
[1] = system: HBV; assay: ELISA of HBsAg and HBeAg in medium, time course of drug treatment in HBV infection system (HepG2-NTCP-AS cells); type: cell-based, hepatitis B virus
Procedure: (§1) However, HBc is strongly arrested in the nucleus by about 150-fold at 9 dpi, when co-treated with compounds KPT-330 or KPT-335. These two drugs are CRM1 inhibitors. Green: HBc. Red: NTCP. Blue: DAPI. […] Briefly, the infected culture of HepG2-NTCP-AS cells are treated with KPT-335 (0.5-1 μM) at 0, 3, and 5 dpi continuously until cell harvesting. Media are collected for ELISA of HBsAg and HBeAg. Cells are harvested for further analysis by Southern blot (SB) and Northern blots (NB). […] The level of total cytoplasmic viral RNA is reduced moderately by treatment with SINE compounds (1 μM). Comparisons of relaxed circular (RC) DNA banding intensities are as described in FIGS. 1A-1B legend, and normalized here to the no drug treatment control. SS: […].
(§2) The results in FIGS. 1A-1B by genetic mutant analysis was also supported by the results from the CRM1 drug treatment experiment (FIGS. 2A-2F). KPT-330 and KPT-335 are known CRM1 inhibitors. In an HBV in vitro infection system, when KPT-330 or KPT-335 were added to the cell culture before or soon after the infection with HBV, HBc was strongly arrested in the nucleus by immunofluorescence microscopy (FIG. 2A). Relative to the control with no drug treatment, KPT-330 and KPT-335 could increase nuclear HBc by approximately 150-fold (FIG. 2B). HBsAg and HBeAg were HBV serum markers.

[2] = system: HBV; assay: Intracellular WT-HBV capsid protein, capsid-associated viral RNA and DNA in the dose-response experiment; type: cell-based, hepatitis B virus; conditions: 0.5 μM
Procedure: (§3) FIGS. 6A and 6B show a cartoon illustration for the analysis methods of extracellular and intracellular HBV viral and subviral particles. […] Viral and subviral particles are separated and characterized by Southern and Western blot analyses. Anti-HBc and anti-HBs antibodies are used consecutively for the same Western blot filters. Southern blot is performed in a separate agarose gel which allows the differentiation of genome-containing (G^+) from genome-free (G^−) viral and subviral particles. […] Then, the RNA/DNA signals are analyzed by Northern blot and Southern blot. 3.5 kb pgRNA: full-length 3.5 kb pre-genomic RNA. RT RNA: reverse transcripted RNA.
(§4) This mutant secretes no naked capsids. V/NC: Virions/naked capsids.
(§5) HBV secreted a total of six different viral and subviral particles in hepatocyte cell culture (FIG. 5). The only infectious particles were the genome-containing virions, which contained envelope protein, capsids, and encapsidated relaxed circle DNA genome. In FIGS. 6A and 6B, a cartoon illustrated the analysis methods of extracellular and intracellular HBV viral and subviral particles. […] Adding drug at 1-day post infection was not effective in blocking virion secretion (FIG. 7C). The potential cytotoxicity of KPT-335 was evaluated using two different methods—Alamar Blue and CCK-8 assays (FIG. 8).

[3] = system: HBV; assay: HBV virion secretion assay, HuH-7 cells transfected with HBV replicon, native agarose gel with Western and Southern blot; type: cell-based, hepatitis B virus
Procedure: as §3, §4
An HBV replicon plasmid is transfected into HuH-7 human hepatoma cell line. SINE compound KPT-8602 is added to the transfected culture at 0 hr post-transfection (i.e., co-treatment). Extracellular media are collected on day 5 (120 hr) post-transfection. Assays for virion secretion are as described in FIG. 6A. Secretion of naked capsids is 100-fold (10 μM/0.1 μM) less sensitive to KPT-8602 treatment than virions.
as §5

[4] = system: HBV; assay: Southern and Northern blot analyses of HBV DNA synthesis and capsid-associated pgRNA in the infection assay; type: cell-based, hepatitis B virus; conditions: cotreatment, 0.5-1 μM
Procedure: as §1, §2

[5] = system: HuH-7 cells; assay: Cell proliferation by alamarBlue and CCK-8 assays; type: cell-based, human
Text: as §5

[6] = system: human cytomegalovirus (HCMV); conditions: by increasing the expression of type I interferon; cited from earlier work
[7] = system: Kaposi's sarcoma-associated herpesvirus (KSHV); conditions: cited from earlier work
[8] = drug and virus added at the same time (co-treatment), 0.5-1 μM

O=C(/C=C\n1cnc(-c2cc(C(F)(F)F)cc(C(F)(F)F)c2)n1)NNc1ccccn1 [KPT-335, Verdinexor]
effect on HBV ([1]; added at 3 or 5 dpi): no effect | HBeAg in the medium by ELISA ([1]; drug added at 3 or 5 dpi): no apparent effect | HBsAg in the medium by ELISA ([1]; drug added at 3 or 5 dpi): no apparent effect | HBeAg in the medium by ELISA [1, 8]: inhibit; also recorded: complete inhibition | HBsAg in the medium by ELISA [1, 8]: inhibit; also recorded: complete inhibition | capsid protein [2]: no significant effect | capsid-associated RNA (RNA encapsidation) [2]: no significant effect | HBV virion secretion ([3]; 0.5 μM, co-treatment): almost completely block | secretion of naked capsids, sensitivity in contrast to virions ([3]; 0.1, 0.25, 0.5 and 1 μM): much less sensitive | blocking virion secretion ([3]; drug added at 1-day post infection): not effective | HBV DNA synthesis [4]: strongly inhibited | HBV RNA encapsidation (cytoplasmic capsid-associated pgRNA) [4]: strongly inhibited | formation of HBc capsids [4]: strongly inhibited | anti-proliferation effect ([5]; below 0.25 μM, alamarBlue and CCK-8): No significant anti-proliferation effect

NC(=O)/C(=C/n1cnc(-c2cc(C(F)(F)F)cc(C(F)(F)F)c2)n1)c1cncnc1 [KPT-8602, Eltanexor]
inhibition of human cytomegalovirus (HCMV) [6]: inhibit | lytic replication of KSHV [7]: reduced | HBV virion secretion ([3]; 0.1 μM, co-treatment at 0 hr post-transfection, media collected day 5): blocks; also recorded: nearly completely block | inhibition of HBV virion secretion, side-by-side comparison ([3]; 0.1, 0.25, 0.5 and 1 μM): more inhibitory than KPT-335 | secretion of naked capsids, sensitivity in contrast to virions ([3]; 0.1, 0.25, 0.5 and 1 μM): much less sensitive | potency, side-by-side comparison ([3]; HBV virion secretion, HuH-7): more potent | secretion of naked capsids less sensitive than virions (10 μM/0.1 μM) ([3]; HuH-7, co-treatment, day 5): 100 fold | cytotoxicity, side-by-side comparison [5]: less cytotoxic
